Assay results reported in patent publication US10745703B2, “Compositions and methods for treating cancer” (CASE WESTERN RESERVE UNIVERSITY, priority 2009, dated 2020).
Entries after “also recorded” stand apart in the source; their conditions may differ. Where a SMILES comes first, the peptide text is derived from it. The star is where a group is joined. Decanoyl = CCCCCCCCCC(=O)*; Cbz = O=C(OCc1ccccc1)*; CH2Cl = ClC*

Assays:
Format in all cases: cell-based, human
LN-229 cells = assay: Scratch wound assay, LN-229 cells; settings: for PTPμ fragment-mediated cell migration: LN-229 cells, DAPT 2 μM, GM6001 50 μM; for migration of LN-229 cells: peptide 5 μM, versus scrambled control, 24 hours
Procedure: Confluent monolayers of cells were scratched to induce a wound and analyzed by microscopy for the distance migrated by the leading edge of the wound at 0 and 24 hrs.
(§1) The Furin Inhibitor I (Dec-RVKR-CMK, Calbiochem, Gibbstown, N.J.) was used at 50 μM for 17-20 hours. The γ-secretase inhibitors DAPT (Sigma-Aldrich) and L-685,458 (Sigma-Aldrich) were used at 2 μM and 5 μM, respectively, for 17-20 hours. The proteasome was inhibited with MG132 (Sigma-Aldrich) at 20 μM or epoxomicin (Calbiochem) at 5 μM for 4 hours. GM6001 (Calbiochem) was used at 50 μM as an MMP/ADAM inhibitor for 17-20 hours. Inhibitors were reconstituted in DMSO, which was used as a vehicle control. […] The PTPμ wedge peptide and a scrambled control peptide were synthesized to include a membrane-penetrant Tat-derived sequence at the C-terminus to promote cellular uptake. Peptides synthesized by Genemed Synthesis (San Antonio, Tex.) or GenScript (Piscataway, N.J.) were reconstituted in water and added to cells at a final concentration of 5 μM.

PTPμ = assay: Proteolytic processing of PTPμ in LN-229 cells treated with protease inhibitors (biotinylation, immunoprecipitation, immunoblot); settings: for endogenous PTPμ PΔE and ICD fragments: parental LN-229 cells, immunoprecipitation SK-18, immunoblot SK-7; for PTPμ PΔE and ICD fragments: total lysates of LN-229 cells overexpressing PTPμ or PTPμ-GFP; for furin cleavage of PTPμ (full-length PTPμ at the cell surface, P-subunit formation): LN-229 cells, cell surface biotinylation, inhibitor 50 μM, 17-20 hours
Procedure: Cell lysates were prepared and immunoblotted using normalized samples of ˜20 μg protein detected with monoclonal antibodies recognizing the intracellular segment of PTPμ (SK-7 or SK-18) (Mol Cell Biochem 1993; 127-128: 131-41). An antibody against vinculin was from Sigma-Aldrich (St. Louis, Mo.). The GFP antibody JL-8 was from Clontech (Mountain View, Calif.).
Cell surface biotinylation was performed using a Sulfo-NHS-SS-Biotin Kit (Pierce). Biotinylated proteins were isolated and resolved by SDS-PAGE on 6% gels followed by immunoblotting with an antibody to PTPμ (SK-18) as described (Mol Cancer Res 2008; 6: 1106-13).
as §1
Cells were grown to confluence, treated with inhibitors, and lysed in 20 mM Tris-HCL, pH 7.5, 1% Triton X-100, 150 mM NaCl, 2 mM EDTA, 1 mM benzamidine, aprotinin (5 μg/ml), leupeptin (5 μg/ml) and pepstatin (1 μg/ml). Samples were sonicated and centrifuged at 10,000 rpm for 5 minutes. Immunoprecipitations from ˜400 μg total protein were performed using a PTPμ antibody (SK-18) and resolved by SDS-PAGE on 8% gels followed by immunoblotting with an antibody to PTPμ (SK-7).

U-87 MG cells = assay: Scratch wound assay, U-87 MG cells
Procedure: U-87 MG cells were infected with control or PTPμ shRNA lentivirus. After three days, confluent monolayers of cells were scratched with a 20 μl pipette tip to induce a wound. The wounded edges were imaged using a Nikon (Tokyo, Japan) TE200 inverted microscope and Spot RT digital camera and image acquisition software (Diagnostic Instruments, Inc., Sterling Heights, Mich.) Images were collected with a 10× objective 0, 6, 24, and 48 hours after wounding. Images were quantitated using MetaMorph software (Molecular Devices, Downingtown, Pa.) by measuring the width of the wound at each time point. The difference between the width of the wound at the zero time point and the time point being analyzed was divided by two. This value reflects the distance migrated by the leading edge of one side of the wound during a given time interval. Replicates were averaged and plotted using Microsoft Excel. Error bars indicate standard error. Data were analyzed for statistical significance using an unpaired student's t-test. Rac1 inhibition studies were performed using a Rac1-specific inhibitor from Calbiochem (Gibbstown, N.J.) (J Biol Chem. 2005;280:37516-37525; Proc Natl Acad Sci USA. 2004;101:7618-7623). For morphological studies, the inhibitor was dissolved in water and added at a final concentration of 100 μM just prior to scratching the cells. Cells were analyzed after 6 hours. For migration studies, the inhibitor was dissolved in water and added at a final concentration of 50 μM just prior to scratching the cells. Cells were analyzed after 24 hours.

Compound: C[C@H](NC(=O)Cc1cc(F)cc(F)c1)C(=O)N[C@H](C(=O)OC(C)(C)C)c1ccccc1 [DAPT]
- PTPμ fragment-mediated cell migration (LN-229 cells): increased migration
- endogenous PTPμ PΔE and ICD fragments (PTPμ): stabilized a fragment that corresponds by molecular weight to a membrane-tethered truncated P-subunit termed PΔE
- PTPμ PΔE and ICD fragments (PTPμ): accumulation of PTPμ PΔE and ICD; also recorded: stabilized

Compound: CCCCCCCCCC(=O)N[C@@H](CCCN=C(N)N)C(=O)N[C@H](C(=O)N[C@@H](CCCCN)C(=O)N[C@@H](CCCN=C(N)N)C(=O)CCl)C(C)C [Furin Inhibitor I, Dec-RVKR-CMK] (Decanoyl-RVKR-CH2Cl)
- furin cleavage of PTPμ (full-length PTPμ at the cell surface, P-subunit formation) (PTPμ; listed as inhibitor of furin): prevented P-subunit formation
- furin cleavage of PTPμ (full-length PTPμ at the cell surface, P-subunit formation) (PTPμ; listed as inhibitor of furin activity): accumulation of full-length PTPμ (200 kDa) at the cell surface

Compound: CC(C)C[C@H](NC(=O)[C@H](Cc1ccccc1)C[C@@H](O)[C@H](Cc1ccccc1)NC(=O)OC(C)(C)C)C(=O)N[C@@H](Cc1ccccc1)C(N)=O [L685,458, L-685,458]
- PTPμ PΔE and ICD fragments (PTPμ): accumulation of PTPμ PΔE and ICD; also recorded: stabilized

Compound: CCN(CC)CCCC(C)Nc1nc(C)cc(Nc2ccc3nc(C)cc(N)c3c2)n1 (racemic) [Rac1 inhibitor]
- induction of lamellipodia in cells with reduced PTPμ expression (U-87 MG cells; U-87 MG cells with PTPμ shRNA #1, inhibitor 100 μM, 6 hours): prevented the induction of lamellipodia; also recorded: blocked the formation of PTPμ-induced lamellipodia
- migration induced by the loss of PTPμ (distance migrated by leading edge) (U-87 MG cells; U-87 MG cells with PTPμ shRNA, inhibitor 50 μM, 24 hours): significantly suppressed the migration; also recorded: significantly reduced the migration
- effect on morphology of control U-87 MG cells (U-87 MG cells; control shRNA U-87 MG cells, inhibitor 100 μM, 6 hours): no effect on morphology

Compound: CNC(=O)[C@H](Cc1c[nH]c2ccccc12)NC(=O)[C@@H](CC(=O)NO)CC(C)C [GM6001]
- PTPμ fragment-mediated cell migration (LN-229 cells): decreased migration
- endogenous PTPμ PΔE and ICD fragments (PTPμ): limited the formation of PTPμ PΔE and ICD fragments

Compound: CC[C@H](C)[C@H](NC(=O)[C@H]([C@@H](C)CC)N(C)C(C)=O)C(=O)N[C@H](C(=O)N[C@@H](CC(C)C)C(=O)[C@@]1(C)CO1)[C@@H](C)O [epoxomicin]
- PTPμ PΔE and ICD fragments (PTPμ): Stabilization of PTPμ ICD; also recorded: stabilized

Compound: CC(C)C[C@@H](C=O)NC(=O)[C@H](CC(C)C)NC(=O)[C@H](CC(C)C)NC(=O)OCc1ccccc1 [MG132] (Cbz-Leu-Leu-Leu-aldehyde)
- endogenous PTPμ PΔE and ICD fragments (PTPμ): accumulation of both PΔE and a soluble fragment termed PTPμ intracellular domain (ICD); also recorded: stabilized
- PTPμ PΔE and ICD fragments (PTPμ): accumulation of PTPμ PΔE and ICD; also recorded: stabilized

Compound: PTPμ wedge peptide: Peptide targeting the helix-loop-helix wedge domain of PTPμ with a membrane-penetrant Tat-derived sequence at the C-terminus (likely SEQ ID NO: 5) (DLLQHITQMKCAEGYGFKEEYESGRKKRRQRRRC)
- migration of LN-229 cells (LN-229 cells): significantly reduced migration
- migration of LN-229 cells (LN-229 cells; listed as PTPμ wedge inhibitor peptide): statistically significant difference in migration
